Assay results taken from US10550143B2, “C,O-spiro aryl glycoside compounds, preparation therefor and use thereof” (SHANGHAI INSTITUTE OF MATERIA MEDICA, CHINESE ACADEMY OF …, priority 2015, dated 2020).

Assays:
[1] = biological target: T1, human sodium-glucose cotransporter 2 (SGLT2) (Homo sapiens, UniProt P31639); assay: In vitro SGLT2 inhibition, methyl-α-D-[U-14C]glucopyranoside uptake in NIH3T3-hSGLT2 cells; format: cell-based; details: for Selectivity: IC50 SGLT1/IC50 SGLT2; for inhibition at 0.01 µM: SGLT2, 10 nM, read-out: % Inhibition rate ± SD 10 nM; for inhibition at 0.1 µM: SGLT2, 100 nM, read-out: % Inhibition rate ± SD 100 nM; for IC50: read-out: IC50 ± SD SGLT2
T1 construct: expressed in transfected cells; host or cells: NIH3T3 (mouse fibroblast) cells expressing hSGLT2
T1 sequence (P31639 1-672): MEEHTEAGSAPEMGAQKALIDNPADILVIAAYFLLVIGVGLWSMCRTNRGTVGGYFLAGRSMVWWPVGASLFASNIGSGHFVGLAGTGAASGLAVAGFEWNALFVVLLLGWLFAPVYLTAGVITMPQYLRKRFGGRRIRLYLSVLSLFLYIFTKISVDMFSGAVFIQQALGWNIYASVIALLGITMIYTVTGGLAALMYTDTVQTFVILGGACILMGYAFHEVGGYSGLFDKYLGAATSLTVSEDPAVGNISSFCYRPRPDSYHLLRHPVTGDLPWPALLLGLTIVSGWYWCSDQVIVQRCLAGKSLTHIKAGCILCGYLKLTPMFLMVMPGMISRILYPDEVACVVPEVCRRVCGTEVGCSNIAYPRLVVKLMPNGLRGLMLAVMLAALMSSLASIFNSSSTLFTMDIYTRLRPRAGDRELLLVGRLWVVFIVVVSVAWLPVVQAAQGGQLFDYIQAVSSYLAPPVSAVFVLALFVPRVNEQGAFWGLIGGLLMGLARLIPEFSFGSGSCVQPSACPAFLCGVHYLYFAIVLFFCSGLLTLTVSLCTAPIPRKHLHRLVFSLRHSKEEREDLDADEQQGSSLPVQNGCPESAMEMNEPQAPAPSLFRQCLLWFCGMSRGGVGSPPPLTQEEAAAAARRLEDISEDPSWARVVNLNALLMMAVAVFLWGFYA
Procedure: Inhibition of the compounds of formula I against human sodium-glucose cotransporter 2 (SGLT2) was determined experimentally and the experimental procedures were carried out as reference^1.
Methyl-α-D-[U-^14C] glucopyranoside (Perkin Elmer) Dimethylsulfoxide (Genebase, Prod No: 0231)
(1) Primary screening of hSGLT2 are conducted with two concentrations, 100 nM and 10 nM;
SGLT2 transports D-glucose at 1:1 sodium-glucose ratio, glucose is replaced by the non-metabolic and isotope labeled methyl-aD-[U-^14C] glucopyranoside and methyl-aD-glucopyranoside, and the amount of isotope transferred into the cells was determined.
1) 0.2% gelatin in a 96-well plate was put in a 37° C. incubator for further use;
2) NIH3T3-hSGLT2 cells were injected into 96-well plates, 40000/well, and 100 μL culture medium per well:
3) the fluid was changed in the next day, and sodium butyrate was added into medium at a final concentration of 2 mM;
4) wash the cells with 100 μL of KRH—Na^+ for 3 times and incubate cells with 50 μL for 30 minutes. Cells were changed to 50 μL of compound in KRH—Na^+, uptake buffer (KRH—Na^+ and methyl-α-D-[U-^14C]glucopyranoside and ⅙ mM methyl-α-D-glucopyranoside at 10 μL per well) was added; KRH-acetylcholine solution was used as background control instead of KRH-Na^+
5) washed with 100 μL PBS for 3 times, dried, 50 μL lysate and 150 μL scintillation fluid were added, the membrane was covered and flattened, shaken on a shaker to mix thoroughly, centrifuged at 1500 rpm at 4° C. for 3 min, taken out and read;
6) the results were analyses.
The inhibition rate (% Inhibiton) of each sample at each concentration was calculated by dividing the value of the compound well value minus the background value by the value of the DMSO control well value minus the background value.
IC50 is calculated as follows: […]
The y value is the activity or inhibition percent, the x value is the concentration of the corresponding compound, top (the maximum y value of the curve), bottom (the minimum y value of the curve).

hSGLT1 = biological target: T2, hSGLT1 (Homo sapiens, UniProt P13866); assay: In vitro SGLT1 inhibition (hSGLT1 IC50 test); format: cell-based; details: read-out: IC50 ± SD SGLT1
T2 sequence (P13866 1-664): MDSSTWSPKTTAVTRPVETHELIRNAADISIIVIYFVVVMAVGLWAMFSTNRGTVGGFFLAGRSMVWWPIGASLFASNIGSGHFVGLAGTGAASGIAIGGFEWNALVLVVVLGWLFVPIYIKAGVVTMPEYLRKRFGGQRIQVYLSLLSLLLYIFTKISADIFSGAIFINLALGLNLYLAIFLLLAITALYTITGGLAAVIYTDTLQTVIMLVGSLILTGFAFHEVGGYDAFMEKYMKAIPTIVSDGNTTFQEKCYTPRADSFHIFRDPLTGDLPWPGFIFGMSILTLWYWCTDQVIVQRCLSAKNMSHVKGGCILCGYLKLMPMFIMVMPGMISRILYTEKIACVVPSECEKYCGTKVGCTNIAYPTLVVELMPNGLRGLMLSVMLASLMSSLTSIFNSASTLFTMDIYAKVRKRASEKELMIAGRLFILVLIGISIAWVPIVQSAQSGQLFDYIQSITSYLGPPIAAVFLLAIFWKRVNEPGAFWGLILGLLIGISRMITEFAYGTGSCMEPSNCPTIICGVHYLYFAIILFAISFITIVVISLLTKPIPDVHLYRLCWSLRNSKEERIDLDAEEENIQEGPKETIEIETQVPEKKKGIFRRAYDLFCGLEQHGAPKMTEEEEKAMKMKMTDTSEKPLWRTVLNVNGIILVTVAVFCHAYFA

SD rats = assay: Acute single administration, urinary glucose changes in SD rats; format: in vivo, rat; set-up: Urine glucose concentration / The total amount of glucose excreted: unit not given here; details: 1 mg/kg oral, after 24 h
Procedure: (1) Acutely Administering Compound to Observed the Urinary Glucose Changes in SD Rats
Thirty-eight male normal SD rats were selected and randomly divided into 5 groups according to body weight and blood glucose, 6-8 in each group. […] After oral gavage, the rats were placed in rats metabolic cages, and urine was collected after 24 h, and the urine volume was recorded, the urine sugar concentration was determined, and urinary sugar content was calculated according to the following formula. Urine content=urinary sugar concentration×urine volume
Glucose levels in urine are measured by the glucose assay kit.
Data were expressed as mean±standard deviation (x±s), and Student's t test was used for statistical analysis of the data, p<0.05 was considered statistically significant.

Selectivity [1] | inhibition at 0.01 µM [1] [%] | inhibition at 0.1 µM [1] [%] | IC50 [1] [nM] | IC50 (hSGLT1) [nM] | Compound | The total amount of glucose excreted (SD rats; Table 4) | Urine glucose concentration (SD rats; Table 4) | Urine volume (SD rats; Table 4, in mL) | The total amount of glucose excreted (SD rats; Table 3) | Urine glucose concentration (SD rats; Table 3) | Urine volume (SD rats; Table 3, in mL)
– | 31.1 ± 7.4 | 95.4 ± 2.8 | 8.4 ± 0.7 | 1930 ± 160 | CCc1ccc(Cc2cc3c(cc2C)CO[C@]32O[C@H](C)[C@@H](O)[C@H](O)[C@H]2O)s1 [Example A57, (1S,3′R,4′S,5′S,6′R)-5,6′-dimethyl-6-((5-ethylthienzyl)-2-methyl)-3′,4′,5′,6′-tetrahydro-3H-spiro[isobenzofuran-1,2′-pyran]-3′,4′,5′-triol] | 786.39 ± 96.43 | 232.39 ± 50.5 | 19.17 ± 2.71 | – | – | –
19483 | 67.5 ± 5.7 | 91.5 ± 11.7 | 3.6 ± 0.7 | 70100 ± 7900 | C[C@H]1O[C@]2(OCc3cc(Cl)c(Cc4ccc(-c5ccc(F)cc5)s4)cc32)[C@H](O)[C@@H](O)[C@@H]1O [Example A31] | – | – | – | 9.41 ± 6.18 | 1.50 ± 0.60 | 33.13 ± 9.99
13 | 25 ± 3.1 | 79.8 ± 8.5 | 29.7 ± 18.4 | 410 ± 50 | CCc1ccc(Cc2cc3c(cc2Cl)CO[C@]32O[C@H](C)[C@@H](O)[C@H](O)[C@H]2O)cc1 [Example A22, (1S,3′R,4′S,5′S,6′R)-6′-methyl-6-(4-ethylbenzyl)-5-chloro-3′,4′,5′,6′-tetrahydro-3H-spiro[isobenzofuran-1,2′-pyran]-3′,4′,5′-triol] | – | – | – | – | – | –
81 | 22.4 ± 7.5 | 95.7 ± 2 | 24 ± 2.4 | 1950 ± 130 | C[C@H]1O[C@]2(OCc3cc(Cl)c(Cc4cc5ccccc5s4)cc32)[C@H](O)[C@@H](O)[C@@H]1O [Example A35, (1S,3′R,4′S,5′S,6′R)-6′-methyl-6-(benzo[b]thiophene-2-methyl)-5-chloro-3′,4′,5′,6′-tetrahydro-3H-spiro[isobenzofuran-1,2′-pyran]-3′,4′,5′-triol] | – | – | – | – | – | –
167 | 22 ± 3.1 | 80 ± 2.7 | 3.6 ± 0.8 | 600 ± 80 | C[C@H]1O[C@]2(OCc3cc(Cl)c(Cc4ccc(CCO)s4)cc32)[C@H](O)[C@@H](O)[C@@H]1O [Example A119, (1S,3′R,4′S,5′S,6′R)-5-chloro-6-((5-(2-hydroxyethyl)thiophene-2-yl)methyl)-6′-methyl-3′,4′,5′,6′-tetrahydro-3H-spiro[isobenzofuran-1,2′-pyran]-3′,4′,5′-triol] | – | – | – | – | – | –
83 | 18.3 ± 2.2 | 71.4 ± 2.8 | 43.5 ± 11.3 | 3600 ± 260 | COCCc1ccc(Cc2cc3c(cc2Cl)CO[C@]32O[C@H](C)[C@@H](O)[C@H](O)[C@H]2O)s1 [Example A114, (1S,3′R,4′S,5′S,6′R)-5-chloro-6-((5-(2-methoxyethyl)thiophene-2-yl)methyl)-6′-methyl-3-3′,4′,5′,6′-tetrahydro-3H-spiro[isobenzofuran-1,2′-pyran]-3′,4′,5′-triol] | – | – | – | – | – | –
166 | 22.1 ± 3 | 91.8 ± 3.5 | 43.4 ± 12.9 | 7200 ± 600 | CC(O)c1ccc(Cc2cc3c(cc2Cl)CO[C@]32O[C@H](C)[C@@H](O)[C@H](O)[C@H]2O)s1 (stereo partly drawn) [Example A118, (1S,3′R,4′S,5′S,6′R)-5-chloro-6-((5-(1-hydroxyethyl)thiophene-2-yl)methyl)-6′-methyl-3′,4′,5′,6′-tetrahydro-3H-spiro[isobenzofuran-1,2′-pyran]-3′,4′,5′-triol] | – | – | – | – | – | –
58 | 51.5 ± 10.7 | 90.5 ± 4.1 | 15.7 ± 2.1 | 920 ± 90 | CCOc1ccc(Cc2cc3c(cc2Cl)CO[C@]32O[C@H](C)[C@@H](O)[C@H](O)[C@H]2O)cc1 [Example A26, (1S,3′R,4′S,5′S,6′R)-6′-methyl-6-(4-ethoxybenzyl)-5-chloro-3′,4′,5′,6′-tetrahydro-3H-spiro[isobenzofuran-1,2′-pyran]-3′,4′,5′-triol] | – | – | – | – | – | –
166 | 24.4 ± 8.8 | 103 ± 3.7 | 32.4 ± 8.2 | 5400 ± 660 | C[C@H]1O[C@]2(OCc3cc(Cl)c(Cc4cc5ccccc5o4)cc32)[C@H](O)[C@@H](O)[C@@H]1O [Example A36, (1S,3′R,4′S,5′S,6′R)-6′-methyl-6-(benzo[b]furan-2-methyl)-5-chloro-3′,4′,5′,6′-tetrahydro-3H-spiro[isobenzofuran-1,2′-pyran]-3′,4′,5′-triol] | – | – | – | – | – | –

Compound | Selectivity [1] | inhibition at 0.01 µM [1] [%] | inhibition at 0.1 µM [1] [%] | IC50 [1] [nM] | IC50 (hSGLT1) [nM] | The total amount of glucose excreted (SD rats; Table 4) | Urine glucose concentration (SD rats; Table 4) | Urine volume (SD rats; Table 4, in mL) | The total amount of glucose excreted (SD rats; Table 3) | Urine glucose concentration (SD rats; Table 3) | Urine volume (SD rats; Table 3, in mL)
CCc1ccc(Cc2cc3c(cc2F)CO[C@]32O[C@H](C)[C@@H](O)[C@H](O)[C@H]2O)s1 [Example A42, (1S,3′R,4′S,5′S,6′R)-6′-methyl-6-((5-ethylthienyl)-2-methyl)-5-fluoro-3′,4′,5′,6′-tetrahydro-3H-spiro[isobenzofuran-1,2′-pyran]-3′,4′,5′-triol] | 988 | 62.4 ± 11.8 | 104 ± 2.8 | 26.7 ± 2 | 25900 ± 4290 | 2.56 ± 2.37 | 0.82 ± 0.73 | 18.5 ± 3.51 | – | – | –
CCc1ccc(Cc2ccc3c(c2)[C@]2(OC3)O[C@H](C)[C@@H](O)[C@H](O)[C@H]2O)cc1 [Example A2, (1S,3′R,4′S,5′S,6′R)-6′-methyl-6-(4-ethylbenzyl)-3′,4′,5′,6′-tetrahydro-3H-spiro[isobenzofuran-1,2′-pyran]-3′,4′,5′-triol] | 351 | 51.4 ± 2.1 | 62.6 ± 2 | 63.5 ± 7.1 | 22300 ± 4260 | – | – | – | – | – | –
